In PubChem BioAssay AID1645865 (Buhrlage Lab, Dana-Farber Cancer Institute and Novartis …, 2021):
Active and inactive are the calls of the source.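 The calls were made as follows: active = maximal inhibition of the USP30 enzyme reaching 30% or more across the dose series; inactive = the rest.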

The compounds below were run against Ubiquitin carboxyl-terminal hydrolase 30 (Homo sapiens) (UniProt Q70CQ3) (assay: inhibitors of ubiquitin-specific protease 30 deubiquitylating enzyme, concentration dependence, in vitro biochemical, validation of primary hits (AID 1645865)). Settings: purified USP30, Ub-rhodamine cleavage, fluorescence, 2 h.
Sequence of Ubiquitin carboxyl-terminal hydrolase 30 (Homo sapiens) (Q70CQ3 whole entry, looked up): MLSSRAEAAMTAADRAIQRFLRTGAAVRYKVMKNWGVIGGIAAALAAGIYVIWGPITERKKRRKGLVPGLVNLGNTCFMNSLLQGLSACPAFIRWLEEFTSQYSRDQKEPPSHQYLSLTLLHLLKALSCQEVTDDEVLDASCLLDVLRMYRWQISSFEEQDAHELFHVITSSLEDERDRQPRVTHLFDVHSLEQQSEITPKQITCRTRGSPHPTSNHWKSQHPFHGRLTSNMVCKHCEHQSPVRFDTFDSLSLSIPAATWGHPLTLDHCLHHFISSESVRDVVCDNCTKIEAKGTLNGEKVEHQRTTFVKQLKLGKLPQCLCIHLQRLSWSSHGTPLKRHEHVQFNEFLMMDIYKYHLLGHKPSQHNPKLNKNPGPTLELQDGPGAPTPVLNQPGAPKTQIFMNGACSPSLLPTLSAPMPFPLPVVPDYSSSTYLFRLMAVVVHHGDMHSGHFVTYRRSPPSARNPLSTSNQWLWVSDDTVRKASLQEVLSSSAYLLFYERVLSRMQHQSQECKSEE

Structure (SMILES) | IC50
O=S(=O)(c1cccc(F)c1)N1CCc2nc3ccccc3n2CC1 | 3.76 µM
O=C(COc1ncnc2ccccc12)Nc1ccc2c(c1)OC1(CCCC1)O2 | 42.2 µM
O=C(Nc1cc(Cl)cc(Cl)c1)c1csnn1 | 16 µM
Cc1nc(NCc2ccccn2)c2cc(-c3ccccc3)sc2n1 | 25.6 µM
Cc1ccc(OCC(=O)Nc2cccc(-c3nc4ncccc4o3)c2)c(C)c1 | 34 µM
O=S1(=O)CCN(Cc2ccccc2)c2c(F)nc(N3CCCCC3)c(F)c21 | > 50 µM (inactive)
Cn1ccnc1CN1C[C@H]2CCN(c3ncccn3)C[C@H]2C1 | > 50 µM (inactive)
COc1cc2c(cc1OC)C(COc1ccccc1OC)N(C(=O)c1ccc3ccccc3c1)CC2 (stereo not given) | > 50 µM (inactive)
O=C(Nc1cccc(C(F)(F)F)c1)N1CCCn2c(nc3ccccc32)C1 | 19.7 µM
CCc1ccc(OCc2nnc(SCC(=O)Nc3ccccc3OC)n2Cc2ccccc2)cc1 | > 50 µM (inactive)
COc1cc(NC(=O)COC(=O)Cn2cnc3ccccc32)cc(OC)c1 | > 50 µM (inactive)
O=c1c2c(ccn1Cc1cc(F)ccc1F)ccn2Cc1cccnc1 | > 50 µM (inactive)
COc1cnc(-c2ccccn2)nc1Sc1ccccc1Cl | 2.89 µM
CCOc1ccccc1C(=O)NCC(=O)OC(C(=O)c1c[nH]c2ccccc12)c1ccccc1 (stereo not given) | > 50 µM (inactive)
NC(=O)CCC(=O)N[C@H]1C[C@H]2CN(Cc3ccccc3)c3ccccc3CN2C1 | > 50 µM (inactive)
O=c1c2cnc(N3CCCCC3)nc2ccn1CCc1ccccc1 | 2.44 µM
CN1CCN(c2ccc3nc(-c4ccccc4)c(-c4ccccc4)nc3c2)CC1 | > 50 µM (inactive)
CCN1CCCC1CN(Cc1cc2cc(OC)ccc2[nH]c1=O)C(=O)NCc1ccccc1 (stereo not given) | > 50 µM (inactive)
COCCNC(=O)c1ccnn1-c1ccc2ccc(-c3cccnc3)cn12 | > 50 µM (inactive)
COc1ccc(C(=O)NCC(c2ccc3c(c2)CCCN3C)N2CCCC2)cc1 (stereo not given) | > 50 µM (inactive)

Structure (SMILES) | IC50
O=C(CN1CCCc2ccccc21)Nc1ccc(N2CCOCC2)cc1 | > 50 µM (inactive)
NC(=O)c1ccc(NC(=O)Cc2cc(-c3ccc(Cl)cc3)on2)cc1 | > 50 µM (inactive)
COc1ccc(CC(NC(C)=O)C(=O)NC2CCN(c3c(Cc4ccccc4)c(C)nc4ncnn34)CC2)cc1OC (stereo not given) | > 50 µM (inactive)
COc1ncccc1CN1CCn2c(Cn3cccn3)cnc2C1C (stereo not given) | > 50 µM (inactive)
c1ccc2c(c1)ccc1nnc(-c3ccc4c(c3)OCO4)n12 | > 50 µM (inactive)
Cc1cc(C)c2c(-n3cccc3)c(C(=O)NCCc3ccc(S(N)(=O)=O)cc3)sc2n1 | > 50 µM (inactive)
Cc1cccc(COc2ccc(C3SCC(=O)Nc4n[nH]c(C)c43)cc2)c1 (stereo not given) | 8.16 µM
Cc1ccc2[nH]c(=O)c(-c3nc4ccc(C)cn4c3NCc3ccc(F)cc3)cc2c1 | 2.1 µM
O=C(NCC(c1cccnc1)N1CCc2ccccc2C1)C(=O)Nc1ccc2c(c1)OCO2 (stereo not given) | 33.3 µM
Cn1c(CN2CCCCCC2)nc2cc(NC(=O)c3ccccc3)ccc21 | > 50 µM (inactive)
CCC(=O)Nc1ccc(-c2nc(Cn3cc(C)cn3)c(C)o2)cc1 | > 50 µM (inactive)
Cc1cc(=O)n2c3c(c4c(cc13)c(CO)cc(=O)n4C)OC2 | > 5 µM (inactive)
COc1cc(NC(=O)c2cc(CN3CCOCC3)on2)cc(OC)c1 | > 50 µM (inactive)
Cc1cccc(C(=O)N2CCc3cc(-c4nc(NC(=O)CN5CCc6ccccc6C5)sc4C)ccc32)c1 | > 50 µM (inactive)
O=c1c2cnc3nc(-c4cccnc4)nn3c2ccn1CCc1ccccc1 | > 50 µM (inactive)
Cc1nn(-c2cc(N3CCOCC3)ncn2)c(C)c1CCC(=O)Nc1ccc(C(C)C)cc1 | 34.9 µM
O=C1/C(=C/c2cn(-c3ccccc3)nc2-c2ccc3c(c2)OCCO3)Cc2ccccc21 | > 50 µM (inactive)
Cc1cccc(NC(=O)CSc2nnc(-c3n[nH]c4c3CCC4)n2N)c1C | 20.2 µM
Cc1ccc(Nc2nc(Nc3cccc(F)c3)nc3nccnc23)c(C)c1 | > 50 µM (inactive)
Nc1ccc(NC(=O)c2cc3c(s2)CCC3)cc1[N+](=O)[O-] | 16.5 µM

Structure (SMILES) | IC50
O=C(COc1ccc(Cl)cc1)N1CCc2cc3ccccc3nc21 | 1.91 µM
COc1cc(-c2cc(C(=O)Nc3cc(C)[nH]n3)c3ccccc3n2)cc(OC)c1OC | 32.7 µM
Cc1cccc(C(=O)NCc2nc3ccccc3n2Cc2ccccc2C)c1 | 41.8 µM
COc1ccc(-c2nnc(SCc3ccccc3C#N)o2)c(OC)c1 | 49.7 µM
COc1ccc(NC(=O)CSc2oc(-c3ccc(C)cc3)nc2S(=O)(=O)c2ccc(Br)cc2)c(OC)c1 | > 50 µM (inactive)
CC1CCN(c2cc(-n3cnc(C(=O)N4CCCC(C)C4)c3)ncn2)CC1 (stereo not given) | > 50 µM (inactive)
CCCC1Cc2c(sc3nc(SCC)nc(N)c23)CO1 (stereo not given) | 13.8 µM
COc1ccccc1NC(=O)Cn1cc(C(=O)c2ccc(C)cc2)c(=O)c2cc(Cl)ccc21 | 3.86 µM
COc1ccc(NCc2nc3ccccc3n2Cc2ccccc2)cc1 | > 50 µM (inactive)
COc1cnc(-c2ccccn2)nc1Sc1ccc(C)cc1 | 25.7 µM
C/C=C1/C2=CCCN3C(=O)O[C@H]([C@H]1O)[C@H]23 | > 50 µM (inactive)
O=C(Nc1ccc2c(c1)OCCO2)c1ccc(N2CCCCC2)nn1 | > 50 µM (inactive)
O=C(COc1cccc(C(=O)NCc2ccccc2)c1)Nc1ccc(Oc2ccccc2)cc1 | > 50 µM (inactive)
COc1ccc(-c2nc(Cn3nnc(C(=O)Nc4ccc(C)c(C)c4)c3N)c(C)o2)cc1 | 2.53 µM
COc1cc(C(=O)OCc2csc(-c3ccccc3)n2)ccc1OCC(=O)Nc1ccc(F)cc1 | > 50 µM (inactive)
CCn1cnc2c1c(=O)n(CC(=O)NCc1ccccc1Cl)c(=O)n2Cc1ccccc1 | > 50 µM (inactive)
Cn1c(-c2nnc(SCC(=O)NCCc3ccccc3)o2)cc2ccccc21 | 7 µM
COCCCn1c(C(=O)Nc2ccccc2OC)cc2c(=O)n3ccccc3nc21 | > 5 µM (inactive)
O=C(NCC1CC1)C1CCCN(c2ccc(-c3ccccc3)nn2)C1 (stereo not given) | > 50 µM (inactive)
Cc1ccc(-c2ncc(C(=O)NCc3cccc(C)c3)c(-c3ccncc3)n2)cc1 | > 50 µM (inactive)

Other lines, results leading:

IC50 | Structure (SMILES)
24.3 µM | O=C1CC(C(=O)Nc2ccccc2F)n2nc(-c3ccccc3)cc2N1 (stereo not given)
27.5 µM | CN=C(N)NCCC/C=C/CCCC(C)CC(C)C1OC(=O)/C=C/C(C)C(O)CC(O)C(C)C(O)CCC(C)C(O)CC2(O)OC(CC(OC(=O)CC(=O)O)CC(O)CC(O)C(C)C(O)/C=C/C1C)CC(O)C2O (stereo not given)
> 50 µM (inactive) | CC1OC1C(=O)[C@]1(O)[C@H](C)[C@@H](O)[C@@]23O[C@@]2([C@H](O)c2c(O)cccc2C3=O)[C@H]1O (stereo not given in full)
> 50 µM (inactive) | C/C=C(\Cl)C1=CC(=O)[C@]23C[C@H]2[C@@]2(C)CO[C@@]1(O)[C@@]3(O)O2
> 50 µM (inactive) | CCC(=O)Nc1cccnc1-c1ccc(C(=O)Nc2cccc(OC)c2)cc1
> 50 µM (inactive) | CCC(=O)OCc1cnc(C)c2oc(=O)c(-c3nc(-c4ccccc4)no3)cc12
28.5 µM | CCC(C)NC(=O)Cn1c(=O)n(-c2ccccc2)c(=O)c2ccc(C(=O)NCc3ccco3)cc21 (stereo not given)
> 50 µM (inactive) | COc1cccc(CC(=O)Nc2cc(F)c3nc(N4CCOCC4)ccc3c2)c1
15.7 µM | COc1ccc(C)cc1NC(=O)C1CC(=O)Nc2nc(SCc3ccccc3)nn21 (stereo not given)
> 50 µM (inactive) | Cc1nc(-c2ccccn2)sc1C(=O)Nc1ccc(C#N)cc1
2.29 µM | CNC(=O)c1cc2c(=O)n3cccc(C)c3nc2n1Cc1ccccc1
0.221 µM | COc1cc2c(cc1NC(=O)c1ccc(-n3cnnn3)cc1)oc1ccccc12
> 50 µM (inactive) | Cc1ccc(C)c(CSC2=NCCN2C(=O)c2ccco2)c1
> 50 µM (inactive) | NC(=O)C1(N2CCCCC2)CCN(C(=O)c2[nH]nc3c2CCc2ccccc2-3)CC1
> 50 µM (inactive) | Cc1cccc2sc(NC(=O)c3nnn(-c4ccc(F)cc4)n3)nc12
> 50 µM (inactive) | CC(=O)c1ccc(NC(=O)/C(=C/c2ccco2)n2nnnc2-c2ccccc2)cc1
> 50 µM (inactive) | Cn1cc2cccc(NC(=O)c3ccc(F)cc3)c2n1
21.2 µM | CCOc1ccc2c(c1)c(=O)c(C(=O)c1ccccc1)cn2CC(=O)Nc1ccc2c(c1)OCCO2

IC50 | Structure (SMILES)
4.04 µM | COc1ccc2c(c1)CCc1c-2n[nH]c1C(=O)Nc1cc(C)on1
25.4 µM | COc1cc(=O)c(C(=O)Nc2ccc(C#N)cc2)nn1-c1cccc(F)c1
> 50 µM (inactive) | Cn1ncc2c(=O)n(Cc3cccc(Cl)c3)cnc21
> 50 µM (inactive) | CCC1=C(c2ccc(C)cc2)S(=O)(=O)NC1=NCC(=O)NCc1ccccc1F
> 50 µM (inactive) | O=C(Cc1ccccc1F)Nc1nc(-c2ccco2)c(-c2ccco2)s1
> 50 µM (inactive) | Cc1oc(C2CC2)cc1C(=O)N1CCC2(CC1)CC1(CO2)Nc2ccccc2-n2cccc21 (stereo not given)
2.82 µM | O=C(NCc1ccc2c(c1)OCO2)c1cc(-c2cc(Cl)ccc2O)n[nH]1
> 50 µM (inactive) | Cn1c(=O)c(C(=O)CN2CCN(c3ccc(O)cc3)CC2)c(N)n(Cc2ccccc2)c1=O
> 50 µM (inactive) | COc1c2n(c3ccccc13)[C@@]1(O)C(=O)N(C)C(=O)[C@@]1(O)c1c-2n(C)c2ccc(Cl)cc12
5 µM | CCn1cnc2c(-c3ccccc3)cn(CC(=O)NCc3ccc4c(c3)OCO4)c2c1=O
> 50 µM (inactive) | Cc1cc(Cl)c2c(c1)[C@]1(C(=O)N2)N2CCC[C@H]2[C@@H](C(=O)c2cc3ccccc3o2)[C@]12C(=O)Nc1ccccc12
26.6 µM | CC(C)c1cc2c(c(O)c1O)[C@@]13CCCC(C)(C)[C@@H]1C[C@@H]2OC3=O
0.111 µM | Cn1c2ccccc2c(=O)c2c(=O)n(Cc3ccccc3)c(-c3ccccc3F)nc21
> 50 µM (inactive) | C/C1=C/C=C/[C@H](C)[C@H](O)[C@@H](C)[C@@H](O)[C@@H](C)[C@H](O)[C@H](C)[C@@H](O)[C@@H](C)/C=C(/C)C(=O)c2c(O)c(C)cc3c2C(=O)C=C(NC1=O)C3=O
> 50 µM (inactive) | CCOC(=O)Nc1ccc(N2CCn3c(nc4ccccc43)C2)cc1OC
19.5 µM | COc1ccc(NC(=O)C2Oc3ccc(C)cc3NC2=O)cc1Cl (stereo not given)
38.9 µM | O=C(NCCc1ccccc1F)c1cn2cc(Cl)ccc2n1
